Patent publication US7183106B1, “Bacterial inosine 5′-monophosphate dehydrogenase (“IMPDH”) DNA as a dominant selectable marker in mammals and other eukaryotes” (The United States of America as represented by the United …, priority 2004, dated 2007)

Columns and labels:
Assay in all cases: MPA toxicity by MTT assay
[1] = system: V79 cells; assay type: cell-based, Chinese hamster
Procedure: (§1) The mammalian cells (2×10^7) (i.e. V79, MDA-MB-231, PC3, COS7) were washed once with phosphate buffered saline (PBS), resuspended in 400 μl of Cytomix buffer, placed in an electroporation cuvette and transfected with 10 μg of DNA by electroporation at 200V, 30 ms, in an ElectroSquarePorator T280 electroporator (BTX, Inc., San Diego, Calif.). Immediately after electroporation, the cuvettes were placed on ice for 10–15 min. After that the cells were washed once in PBS and 1×10^6 viable cells, as determined by trypan blue exclusion, were re-suspended in 10 ml of growth medium in 100 mm tissue culture plates, incubated overnight at 37° C. and treated the next day with 0.8 μg/ml of MPA (stock concentration at 14.2 mg/ml in DMSO, Sigma, St. Louis, Mo.) or 600 μg/ml of G418. For the different assays, cells were obtained from either individual or pooled MPA-resistant colonies. For colony isolation, visible individual colonies were each picked and aspirated into a glass Pasteur pipette and transferred into a well of a 24-well tissue culture plate. The next day, after rinsing the wells with the colonies with PBS and incubation for 1–2 min in a drop of a trypsin/EDTA solution, the cells within each well were dispersed by forceful pipetting. Next, the cells were incubated in growth medium to generate a monolayer culture, which was used to determine the cells' susceptibility to MPA. Cultures were also obtained from single MPA-resistant cells derived from pooled colonies by seeding 2.5 cells/ml into 96-well flat-bottom microtiter plates in 200 μl of growth medium/well and only cultures deriving from wells that were initially found to contain single cells were used. MPA toxicity was determined by the MTT (methylthiazoletetrazolium) assay (described in detail below) while the expression of the green fluorescent protein (GFP) was detected by fluorescence microscopy and/or flow cytometry.
(§2) Cell survival and proliferation was measured using the MTT assay, which detects active mitochondria and as a result viable cells. For this assay, 2×10^4 cells were suspended in 200 μl of growth medium/well in 96-well flat-bottom microtiter plates with various stimuli and incubated at 37° C. After 6 d, 10 μl of MTT solution (5 mg/ml in PBS) (Sigma, St. Louis, Mo.) was added to each well and the plates were incubated for an additional 4 h at 37° C. In the case of V79 cells, which grow twice as fast as the other cell lines, the MTT solution was added after 3 d. The plates were then centrifuged at 1000 rpm for 5 min, supernatants discarded and 100 µl of DMSO added per well, and the plates were read at 540 nm using a microtiter plate reader.

[2] = system: MDA-MB-231 cells; assay type: cell-based, human
Procedure: as §1, §2

[3] = system: PC3 cells; assay type: cell-based, human
Procedure: as §1, §2

[4] = system: COS7 cells; assay type: cell-based, monkey
Procedure: as §1, with “Cultures were also obtained from single MPA-resistant cells derived from pooled colonies by seeding 2.5 cells/ml into 96-well flat-bottom microtiter plates in 200 μl of growth medium/well and only cultures deriving from wells that were initially found to contain single cells were used.” left out
Cell survival and proliferation was measured using the MTT assay, which detects active mitochondria and as a result viable cells. […] The plates were then centrifuged at 1000 rpm for 5 min, supernatants discarded and 100 µl of DMSO added per well, and the plates were read at 540 nm using a microtiter plate reader.

SMILES: COc1c(C)c2c(c(O)c1C/C=C(\C)CCC(=O)O)C(=O)OC2 [MPA, mycophenolic acid]
- MPA concentration to whose cytotoxic effect the cells were resistant ([1]; 7 individual MPA-resistant V79 colonies (pFLAG-IMPDH transfected), MTT assay): up to 50 μg/ml
- MPA concentration at which cells failed to grow ([1]; parental (not transfected) V79 cells): ≤ 0.8 µg/mL
- MPA concentration to whose cytotoxic effect the cells were resistant ([1]; single cell-derived cultures from pooled MPA-resistant V79 colonies): up to 50 μg/ml
- Time after MPA treatment at which growth inhibition was detected ([1]; wild type V79 cells): 3 days
- MTT staining of control cultures after 4 weeks of MPA treatment ([2]; control (not transfected parental) MDA-MB-231 cultures, 4 weeks): no MTT staining above background levels
- MPA concentration to whose cytotoxic effect the cells were resistant ([2]; single cell-derived cultures from pooled MPA-resistant MDA-MB-231 colonies): up to 50 μg/ml
- Time after MPA treatment at which growth inhibition was detected ([2]; wild type MDA-MB-231 cells): 6 days
- MTT staining of control cultures after 4 weeks of MPA treatment ([3]; control (not transfected parental) PC3 cultures, 4 weeks): no MTT staining above background levels
- MPA concentration to whose cytotoxic effect the cells were resistant ([3]; single cell-derived cultures from pooled MPA-resistant PC3 colonies): up to 50 μg/ml
- Time after MPA treatment at which growth inhibition was detected ([3]; wild type PC3 cells): 6 days
- MTT staining of control cultures after 4 weeks of MPA treatment ([4]; control (not transfected parental) COS7 cultures, 4 weeks): no MTT staining above background levels
- MPA concentration to whose cytotoxic effect the cells were resistant ([4]; single cell-derived cultures from pooled MPA-resistant COS7 colonies): up to 50 μg/ml
- Time after MPA treatment at which growth inhibition was detected ([4]; wild type COS7 cells): 6 days
